These are literature values, as cited in US8354043B2, “Natural gas odorization” (Enersol Inc., N.A.L.P., priority 2008, dated 2013).

For this data set the following is noted: for Pvap @ 25° C. (vapor pressure): 25° C. and 1 atm; for Pvap @ 20° C. (vapor pressure): 20° C. and 1 atm.

Where a name gives a salt, the structure may show the parent alone.

With 3-Cyclohex-1-one [Compound 10], the “Pvap @ 25° C. (vapor pressure)” value is 0.04 psi.

For `O=c1ccocc1` [Compound 2, 4-Pyrone], the “Pvap @ 25° C. (vapor pressure)” value is 0.004 psi.

Turning to `O=C1C=CCCC1` [Compound 9, 2-Cyclohex-2-en-1-one], the “Pvap @ 25° C. (vapor pressure)” value is recorded as 0.07 psi.

On to `O=C1CCCCC1` [Compound 11, Cyclohexanone], for which the “Pvap @ 25° C. (vapor pressure)” value is given as 0.08 psi.

Consider `CC(=O)C1CCCCC1` [Compound 12, Cyclohexyl methyl ketone], for which the “Pvap @ 25° C. (vapor pressure)” value is “.02 psi”.

With `CC(=O)C1=CCCCC1` [Compound 13, 1-(1-Cyclohexen-1-yl)-ethanone], the “Pvap @ 25° C. (vapor pressure)” value is 0.003 psi.

As to `O=C1CC=CO1` [Compound 15, 2(3H)-Furanone], the “Pvap @ 25° C. (vapor pressure)” value is recorded as 0.02 psi.

As to `O=C1CCCO1` [Compound 17, γ-Butyrolactone], the “Pvap @ 20° C. (vapor pressure)” value was 0.03 psi and the “Pvap @ 25° C. (vapor pressure)” value was 0.01 psi.

`O=C1C=CCC1` [Compound 18, 2-Cyclopenten-1-one]: the “Pvap @ 25° C. (vapor pressure)” value is 0.18 psi.

With `CC(=O)C1CCCC1` [Compound 21, 1-Cyclopentyl-ethanone], the “Pvap @ 25° C. (vapor pressure)” value is 0.07 psi.

For `CCC(=O)C(C)=O` [Compound 23, 2,3-Petanedione], the “Pvap @ 25° C. (vapor pressure)” value is 0.60 psi.

For the compound `CCCC(=O)C(C)=O` [Compound 24, 2,3-Hexanedione], the “Pvap @ 20° C. (vapor pressure)” value is on record as 0.19 psi and the “Pvap @ 25° C. (vapor pressure)” value is recorded as 0.06 psi.

As for `CC(=O)CC(C)=O` [Compound 25, Aceylacetone], the “Pvap @ 20° C. (vapor pressure)” value was 0.13 psi and the “Pvap @ 25° C. (vapor pressure)” value is 0.06 psi.

Consider `CCC(=O)CC(C)=O` [Compound 26, 2,4-Hexandione], for which the “Pvap @ 25° C. (vapor pressure)” value is 0.06 psi.

On to `CC(=O)CCC(C)=O` [Compound 27, 2,5-Hexanedione], for which the “Pvap @ 20° C. (vapor pressure)” value was 0.01 psi and the “Pvap @ 25° C. (vapor pressure)” value was 0.06 psi.

Regarding `C=CC(C)=O` [Compound 28, Methyl vinyl ketone], the “Pvap @ 25° C. (vapor pressure)” value is given as 2.94 psi.

Turning to `C=CC(=O)CC` [Compound 29, Ethyl vinyl ketone], the “Pvap @ 25° C. (vapor pressure)” value is 0.74 psi.

With `O=CC1CCCCC1` [Compound 34, Cyclohexanal], the “Pvap @ 20° C. (vapor pressure)” value was 0.05 psi.

As to `O=CC1CCCC1` [Compound 36, Cyclopentaldehyde], the “Pvap @ 20° C. (vapor pressure)” value is 0.17 psi.

With `O=CC=O` [Compound 38, Ethanedial], the “Pvap @ 25° C. (vapor pressure)” value was 4.93 psi.

With `O=CCC=O` [Compound 39, Malondialdehyde], the “Pvap @ 25° C. (vapor pressure)” value is listed as 0.09 psi.

Take `O=CCCCC=O` [Compound 41, Pentane-1,5-dial]: the “Pvap @ 25° C. (vapor pressure)” value was 0.01 psi.

Regarding `CC(=O)C=O` [Compound 42, 2-Oxo-propanal], the “Pvap @ 20° C. (vapor pressure)” value was 0.52 psi.

`CC=CC=O` [Compound 43, 2-Butenal]: the “Pvap @ 20° C. (vapor pressure)” value is 0.58 psi.

Regarding `CCOC=O` [Compound 47, Ethyl formate], the “Pvap @ 25° C. (vapor pressure)” value is 4.74 psi.

Consider `CCCOC=O` [Compound 48, Propyl formate], for which the “Pvap @ 20° C. (vapor pressure)” value is 1.60 psi.

Take `CC(C)OC=O` [Compound 49, Isopropyl formate]: the “Pvap @ 20° C. (vapor pressure)” value is on record as 2.67 psi.
